{
  "source": "patent US10758609B2",
  "about": "“Cross-reactive T-cell epitopes of HIV, SIV, and FIV for vaccines in humans and cats” (priority 2015, dated 2020)",
  "key": {"[1]": {"system": "PBMC from FIV-vaccinated cats", "experiment": "Feline IL2 ELISpot of PBMC from vaccinated cats", "type": "cell-based, cat", "in_short": "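PBMC from cats given a dual-subtype FIV vaccine were stimulated with FIV MAPs, peptides or overlapping peptide pools, and IFNγ or IL2 spots were counted. Values are duplicate means after subtraction of media controls (or of control-cat averages), with ≥50 SFU per 1×10^6 PBMC as the threshold.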"}, "[2]": {"system": "PBMC from FIV-vaccinated cats", "experiment": "Feline IFNγ ELISpot of PBMC from vaccinated cats", "type": "cell-based, cat", "details": "for IFNγ production: pilot study, pre-challenge; for IFNγ response rate: MAP Trial 2"}, "[3]": {"system": "feline CD3^+CD4^+ T cells", "experiment": "CFSE-based feline CD3+CD4+ T-cell proliferation", "design": "species or system cat", "details": "FIV-vaccinated cats; for CD4, frequency of responders: FIV epitope peptide; for CDC4^+ T (T-cell proliferation), frequency of responders: FIV peptides", "in_short": "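CFSE-labelled PBMCs (2.5×10^5) from cats stimulated 5 days at 37 °C with peptides or overlapping peptide pools at 4 μg/mL each. Proliferating CD3+CD4+ and CD3+CD8+ cells gated by flow. Media/control values subtracted; positive threshold ≥1 CFSE^low (≥0.5 CFSE^low in vaccine trial).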"}, "[4]": {"details": "FIV epitope peptide, FIV-vaccinated cats"}, "[5]": {"details": "FIV peptides, FIV-vaccinated cats (prototype dual-subtype vaccine)"}},
  "data": [
    {"sequence": "AGLRQSLEQYQVVKQ [FSU4]", "values": [
      {"measurement": "IL2, frequency of responders", "setting": "[1]; FIV epitope peptide", "result": "— (0%-1.4% (—))"},
      {"measurement": "IL2, frequency of responders", "setting": "[1]; FIV peptides", "result": "— (0%-1.4%(—))"},
      {"measurement": "IFNγ, frequency of responders", "setting": "[2]; [4]", "result": "+++ (41%-54% (+++))"},
      {"measurement": "IFNγ, frequency of responders", "setting": "[2]; [5]", "result": "+++ (40.1%-54% (+++))"},
      {"measurement": "CD4, frequency of responders", "setting": "[3]", "result": "+++ (41%-54% (+++))"},
      {"measurement": "CDC4^+ T (T-cell proliferation), frequency of responders", "setting": "[3]", "result": "+++ (40.1%-54% (+++))"}
    ]},
    {"sequence": "KFLYTAFAMQELR [FTM4-3]", "values": [
      {"measurement": "IL2, frequency of responders", "setting": "[1]; FIV epitope peptide", "result": "++++ (>54% (++++))"},
      {"measurement": "IL2, frequency of responders", "setting": "[1]; FIV peptides", "result": "++++ (>54% (++++))"},
      {"measurement": "IFNγ, frequency of responders", "setting": "[2]; [4]", "result": "++++ (>54% (++++))"},
      {"measurement": "IFNγ, frequency of responders", "setting": "[2]; [5]", "result": "++++ (>54% (++++))"},
      {"measurement": "CD4, frequency of responders", "setting": "[3]", "result": "++ (26%-40% (++))"},
      {"measurement": "CDC4^+ T (T-cell proliferation), frequency of responders", "setting": "[3]", "result": "++ (25.1%-40% (++))"}
    ]},
    {"sequence": "KKKSGKWRMLIDFRV [FRT3-3]", "values": [
      {"measurement": "IL2, frequency of responders", "setting": "[1]; FIV epitope peptide", "result": "++ (26%-40% (++))"},
      {"measurement": "IL2, frequency of responders", "setting": "[1]; FIV peptides", "result": "++ (25.1%-40% (++))"},
      {"measurement": "IFNγ, frequency of responders", "setting": "[2]; [5]", "result": "± (1.5%-12.4% (±))"},
      {"measurement": "CD4, frequency of responders", "setting": "[3]", "result": "++ (26%-40% (++))"},
      {"measurement": "CDC4^+ T (T-cell proliferation), frequency of responders", "setting": "[3]", "result": "++ (25.1%-40% (++))"}
    ]},
    {"sequence": "LLLILCLPTLVDCIRN [FTM8(20)]", "values": [
      {"measurement": "IL2, frequency of responders", "setting": "[1]; FIV epitope peptide", "result": "— (0%-1.4% (—))"},
      {"measurement": "IL2, frequency of responders", "setting": "[1]; FIV peptides", "result": "— (0%-1.4%(—))"},
      {"measurement": "IFNγ, frequency of responders", "setting": "[2]; [4]", "result": "++ (26%-40% (++))"},
      {"measurement": "IFNγ, frequency of responders", "setting": "[2]; [5]", "result": "++ (25.1%-40% (++))"},
      {"measurement": "CD4, frequency of responders", "setting": "[3]", "result": "++ (26%-40% (++))"},
      {"measurement": "CDC4^+ T (T-cell proliferation), frequency of responders", "setting": "[3]", "result": "++ (25.1%-40% (++))"}
    ]},
    {"sequence": "PTDMATLIMAAPGCA [Fp4-3]", "values": [
      {"measurement": "IL2, frequency of responders", "setting": "[1]; FIV epitope peptide", "result": "+ (12.5%-25% (+))"},
      {"measurement": "IL2, frequency of responders", "setting": "[1]; FIV peptides", "result": "+ (12.5%-25% (+))"},
      {"measurement": "IFNγ, frequency of responders", "setting": "[2]; [4]", "result": "++ (26%-40% (++))"},
      {"measurement": "IFNγ, frequency of responders", "setting": "[2]; [5]", "result": "++ (25.1%-40% (++))"},
      {"measurement": "IFNγ production", "setting": "[2]; cat OCA", "result": 161, "unit": "SFU"},
      {"measurement": "IFNγ production", "setting": "[2]; cat SBA", "result": 60, "unit": "SFU"},
      {"measurement": "CD4, frequency of responders", "setting": "[3]", "result": "++++ (>54% (++++))"},
      {"measurement": "CDC4^+ T (T-cell proliferation), frequency of responders", "setting": "[3]", "result": "++++ (>54% (++++))"}
    ]},
    {"sequence": "WRMLIDFRVLNKL [FRT3-4]", "values": [
      {"measurement": "IL2, frequency of responders", "setting": "[1]; FIV epitope peptide", "result": "++ (26%-40% (++))"},
      {"measurement": "IL2, frequency of responders", "setting": "[1]; FIV peptides", "result": "++ (25.1%-40% (++))"},
      {"measurement": "IFNγ, frequency of responders", "setting": "[2]; [4]", "result": "++ (26%-40% (++))"},
      {"measurement": "IFNγ, frequency of responders", "setting": "[2]; [5]", "result": "++ (25.1%-40% (++))"},
      {"measurement": "IFNγ response rate", "setting": "[2]; 6 weeks post-3rd vaccination", "result": 64.3, "unit": "%"},
      {"measurement": "IFNγ response rate", "setting": "[2]; SQ and ID MAP-vaccinated cats, 6 weeks post-2nd vaccination", "result": 14.3, "unit": "%"},
      {"measurement": "CD4, frequency of responders", "setting": "[3]", "result": "+ (12.5%-25% (+))"},
      {"measurement": "CDC4^+ T (T-cell proliferation), frequency of responders", "setting": "[3]", "result": "+ (12.5%-25% (+))"}
    ]}
  ]
}
